Test results published in patent US6677347B2, “Sulfonamido ether substituted imidazoquinolines” (3M Innovative Properties Company, priority 2000, dated 2004).

Assays:
interferon (α) = assay: Cytokine Induction in Human Cells: interferon (α) by ELISA; type: cell-based; parameters: key to Lowest Effective Concentration (μM) Interferon: *: no induction was seen at any of the tested concentrations; generally the highest concentration tested was 10 or 30 μM; conditions: human PBMC, 18 to 24 hours incubation, lowest concentration found to induce interferon
From the text: (§1) An in vitro human blood cell system is used to assess cytokine induction. Activity is based on the measurement of interferon and tumor necrosis factor (α) (IFN and TNF, respectively) secreted into culture media as described by Testerman et. al. In “Cytokine Induction by the Immunomodulators Imiquimod and S-27609”, Journal of Leukocyte Biology, 58, 365-372 (September, 1995).
(§2) Whole blood from healthy human donors is collected by venipuncture into EDTA vacutainer tubes. Peripheral blood mononuclear cells (PBMC) are separated from whole blood by density gradient centrifugation using Histopaque®-1077. Blood is diluted 1:1 with Dulbecco's Phosphate Buffered Saline (DPBS) or Hank's Balanced Salts Solution (HBSS). The PBMC layer is collected and washed twice with DPBS or HBSS and resuspended at 4×10^6 cells/mL in RPMI complete. The PBMC suspension is added to 48 well flat bottom sterile tissue culture plates (Costar, Cambridge, Mass. or Becton Dickinson Labware, Lincoln Park, N.J.) containing an equal volume of RPMI complete media containing test compound.
(§3) The compounds are solubilized in dimethyl sulfoxide (DMSO). The DMSO concentration should not exceed a final concentration of 1% for addition to the culture wells. The compounds are generally tested at concentrations ranging from 30-0.014 μM.
(§4) The solution of test compound is added at 60 μM to the first well containing RPMI complete and serial 3 fold dilutions are made in the wells. The PBMC suspension is then added to the wells in an equal volume, bringing the test compound concentrations to the desired range (30-0.014 μM). The final concentration of PBMC suspension is 2×10^6 cells/mL. The plates are covered with sterile plastic lids, mixed gently and then incubated for 18 to 24 hours at 37° C. in a 5% carbon dioxide atmosphere.
(§5) Following incubation the plates are centrifuged for 10 minutes at 1000 rpm (˜200×g) at 4° C. The cell-free culture supernatant is removed with a sterile polypropylene pipet and transferred to sterile polypropylene tubes. Samples are maintained at −30 to −70° C. until analysis. The samples are analyzed for interferon (α) by ELISA and for tumor necrosis factor (α) by ELISA or IGEN Assay
Interferon (α) concentration is determined by ELISA using a Human Multi-Species kit from PBL Biomedical Laboratories, New Brunswick, N.J. Results are expressed in pg/mL.
(§6) The table below lists the lowest concentration found to induce interferon and the lowest concentration found to induce tumor necrosis factor for each compound.

[1] = tested on: tumor necrosis factor (α); assay: Cytokine Induction in Human Cells: tumor necrosis factor (α) by ELISA or IGEN assay; type: cell-based; parameters: key to Lowest Effective Concentration (μM) Tumor Necrosis Factor: *: no induction was seen at any of the tested concentrations; generally the highest concentration tested was 10 or 30 μM; conditions: human PBMC, 18 to 24 hours incubation, lowest concentration found to induce tumor necrosis factor
From the text: as §1, §2, §3, §4, §5
Tumor necrosis factor (α) (TNF) concentration is determined using ELISA kits available from Biosource International, Camarillo, Calif. Alternately, the TNF concentration can be determined by Origen® M-Series Immunoassay and read on an IGEN M-8 analyzer from IGEN International, Gaithersburg, Md. The immunoassay uses a human TNF capture and detection antibody pair from Biosource International, Camarillo, Calif. Results are expressed in pg/mL.
as §6

Row | SMILES | minimal effective concentration (interferon (α)) [µM] | minimal effective concentration [1] [µM] | Lowest Effective Concentration (μM) Interferon (interferon (α)) | Lowest Effective Concentration (μM) Tumor Necrosis Factor [1]
1 | Nc1nc2ccccc2c2c1ncn2CCOCCNS(=O)(=O)c1ccccc1 [Example 41] | 10 | 1 | – | –
2 | Nc1nc2ccccc2c2c1ncn2CCOCCNS(=O)(=O)c1ccc(-c2ccccc2)cc1 [Example 47] | – | – | * | *
3 | CCCCS(=O)(=O)N1CCC(CCOCC(CC)n2cnc3c(N)nc4ccccc4c32)CC1 (centres unmarked) [Example 29] | 1 | 10 | – | –
4 | CCCCc1nc2c(N)nc3ccccc3c2n1CCOCCNS(=O)(=O)c1cccc(C#N)c1 [Example 15] | 10 | 10 | – | –
5 | CCCCc1nc2c(N)nc3ccccc3c2n1CCOCCNS(=O)(=O)c1ccc(F)cc1F [Example 17] | 1 | 10 | – | –
6 | CCCCc1nc2c(N)nc3ccccc3c2n1CCOCCNS(=O)(=O)Cc1ccccc1 [Example 12] | 0.1 | 10 | – | –
7 | CCC(COCCC1CCN(S(=O)(=O)c2ccc(/N=N/c3ccc(N(C)C)cc3)cc2)CC1)n1cnc2c(N)nc3ccccc3c21 (centres unmarked) [Example 39] | 1 | – | – | *
8 | CCC(COCCC1CCN(S(=O)(=O)c2ccc(OC(F)(F)F)cc2)CC1)n1cnc2c(N)nc3ccccc3c21 (centres unmarked) [Example 38] | – | – | * | *
9 | Cc1nc2c(N)nc3ccccc3c2n1CCCOCCOCCCNS(=O)(=O)c1cccc2c(N(C)C)cccc12 [Example 50, N-[10-(4-amino-2-methyl-1H-imidazo[4,5-c]quinolin-1-yl)-4,7-dioxadecyl]-5-dimethylaminonaphthalene-1-sulfonamide] | 1.11 | – | – | *
10 | CCCCc1nc2c(N)nc3ccccc3c2n1CCOCCNS(=O)(=O)c1ccc(OC(F)(F)F)cc1 [Example 24] | 0.0001 | 10 | – | –
11 | CCC(COCCC1CCN(S(=O)(=O)c2cccc(F)c2)CC1)n1cnc2c(N)nc3ccccc3c21 (centres unmarked) [Example 32] | 1 | 1 | – | –
12 | CS(=O)(=O)c1ccc(S(=O)(=O)NCCOCCn2cnc3c(N)nc4ccccc4c32)cc1 [Example 48] | – | 10 | * | –
13 | CCCCc1nc2c(N)nc3ccccc3c2n1CCOCCNS(=O)(=O)C[C@@]12CC[C@@H](CC1=O)C2(C)C [Example 26] | 0.01 | 10 | – | –
14 | CCCCc1nc2c(N)nc3ccccc3c2n1CCOCCNS(=O)(=O)c1ccc(-c2ccccc2)cc1 [Example 22] | 0.0001 | 10 | – | –
15 | Nc1nc2ccccc2c2c1ncn2CCOCCNS(=O)(=O)c1cccc(F)c1 [Example 42] | 10 | 1 | – | –
16 | CCC(COCCC1CCN(S(=O)(=O)c2ccccc2)CC1)n1cnc2c(N)nc3ccccc3c21 (centres unmarked) [Example 30] | 1 | 10 | – | –
17 | CCC(COCCC1CCN(S(=O)(=O)c2cccc(C#N)c2)CC1)n1cnc2c(N)nc3ccccc3c21 (centres unmarked) [Example 33] | 1 | 1 | – | –
18 | CCCCc1nc2c(N)nc3ccccc3c2n1CCOCCNS(=O)(=O)c1cccc(F)c1 [Example 13] | 1 | 10 | – | –
19 | CCC(COCCC1CCN(S(=O)(=O)c2ccc(OC)cc2)CC1)n1cnc2c(N)nc3ccccc3c21 (centres unmarked) [Example 34] | 1 | 1 | – | –
20 | Nc1nc2ccccc2c2c1ncn2CCOCCNS(=O)(=O)c1ccc(OC(F)(F)F)cc1 [Example 49] | – | 10 | * | –
21 | CCCCc1nc2c(N)nc3ccccc3c2n1CCOCCNS(=O)(=O)c1cccs1 [Example 11] | 1 | 10 | – | –
22 | Nc1nc2ccccc2c2c1ncn2CCOCCNS(=O)(=O)c1ccc(C(F)(F)F)cc1 [Example 46] | – | – | * | *

Row | SMILES | minimal effective concentration (interferon (α)) [µM] | minimal effective concentration [1] [µM] | Lowest Effective Concentration (μM) Interferon (interferon (α)) | Lowest Effective Concentration (μM) Tumor Necrosis Factor [1]
23 | CCC(COCCC1CCN(S(=O)(=O)c2ccc(S(C)(=O)=O)cc2)CC1)n1cnc2c(N)nc3ccccc3c21 (centres unmarked) [Example 37] | 0.1 | 1 | – | –
24 | CCC(COCCC1CCN(S(=O)(=O)N(C)C)CC1)n1cnc2c(N)nc3ccccc3c21 (centres unmarked) [Example 28] | 0.1 | 1 | – | –
25 | CCCCc1nc2c(N)nc3ccccc3c2n1CCOCCNS(=O)(=O)c1ccc(C(F)(F)F)cc1 [Example 21] | 10 | 10 | – | –
26 | CCC(COCCC1CCN(S(=O)(=O)c2cccc3cccnc23)CC1)n1cnc2c(N)nc3ccccc3c21 (centres unmarked) [Example 36] | 1 | 10 | – | –
27 | CCCCc1nc2c(N)nc3ccccc3c2n1CCOCCNS(=O)(=O)CCCC [Example 9] | 0.1 | 1 | – | –
28 | Nc1nc2ccccc2c2c1ncn2CCOCCNS(=O)(=O)c1ccc(F)cc1F [Example 44] | 1 | 10 | – | –
29 | COc1ccc(S(=O)(=O)NCCOCCn2cnc3c(N)nc4ccccc4c32)cc1 [Example 43] | 10 | 10 | – | –
30 | CCCCc1nc2c(N)nc3ccccc3c2n1CCOCCNS(=O)(=O)c1cccc2cccnc12 [Example 20] | 1 | 10 | – | –
31 | CCCCc1nc2c(N)nc3ccccc3c2n1CCOCCNS(=O)(=O)c1ccccc1 [Example 10] | 1 | 10 | – | –
32 | CCC(COCCC1CCN(S(=O)(=O)c2ccc(F)cc2F)CC1)n1cnc2c(N)nc3ccccc3c21 (centres unmarked) [Example 35] | 1 | 1 | – | –
33 | CCC(COCCC1CCN(S(=O)(=O)C(C)C)CC1)n1cnc2c(N)nc3ccccc3c21 (centres unmarked) [Example 27] | 0.1 | 1 | – | –
34 | CCCCc1nc2c(N)nc3ccccc3c2n1CCOCCNS(=O)(=O)c1ccc(/N=N/c2ccc(N(C)C)cc2)cc1 [Example 25] | 0.0001 | – | – | *
35 | CCCCc1nc2c(N)nc3ccccc3c2n1CCOCCNS(=O)(=O)CC [Example 6] | 0.001 | 1 | – | –
36 | CCCCc1nc2c(N)nc3ccccc3c2n1CCOCCNS(=O)(=O)C(C)C [Example 7] | 0.01 | 1 | – | –
37 | CCCCc1nc2c(N)nc3ccccc3c2n1CCOCCNS(=O)(=O)N(C)C [Example 8] | 0.01 | 1 | – | –
38 | CCC(COCCC1CCN(S(=O)(=O)c2cccs2)CC1)n1cnc2c(N)nc3ccccc3c21 (centres unmarked) [Example 31] | 1 | 10 | – | –
39 | CCCCc1nc2c(N)nc3ccccc3c2n1CCOCCNS(=O)(=O)c1ccc(OC)cc1 [Example 16] | 1 | 10 | – | –
40 | Nc1nc2ccccc2c2c1ncn2CCOCCNS(=O)(=O)c1ccc2ccccc2c1 [Example 45] | – | – | * | *
41 | CCCCc1nc2c(N)nc3ccccc3c2n1CCOCCNS(=O)(=O)c1ccc(C#N)cc1 [Example 14] | 1 | 10 | – | –
42 | CCCCc1nc2c(N)nc3ccccc3c2n1CCOCCNS(=O)(=O)c1ccc(S(C)(=O)=O)cc1 [Example 23] | 0.0001 | 10 | – | –
43 | CCCCc1nc2c(N)nc3ccccc3c2n1CCOCCNS(=O)(=O)c1ccc2ccccc2c1 [Example 19] | – | 10 | * | –
